The text below walks through data of patent publication US12023320B2, “Therapeutic agent for fatty liver disease” (EA PHARMA CO., LTD., priority 2020, dated 2024).

In this experiment the test system is high-fat and high-fructose-induced NASH model (FFD model). Description: high-fat and high-fructose-induced NASH model (fast-food diet model: FFD model), 18 weeks gavage. Conditions: for histopathological findings: Fat formation: large fat droplets, number of mice graded ± (Slight) / histopathological findings: Fat formation: large fat droplets, number of mice graded + (Moderate): 8 mice evaluated; for histopathological findings: Fat formation: large fat droplets, number of mice graded ± (Slight) / histopathological findings: Fibrosis, number of mice graded ± (Slight): Vehicle 3; for histopathological findings: Fat formation: large fat droplets, number of mice graded + (Moderate) / histopathological findings: Fibrosis, number of mice graded + (Moderate): Vehicle 5; for histopathological findings: Fibrosis, number of mice graded ± (Slight) / histopathological findings: Fibrosis, number of mice graded + (Moderate): individuals with liver nodules excluded; for number of CD68-positive hCLS in the liver (inhibitory effect on the increase vs Vehicle group): after 18 weeks of administration (FIG. 5); for liver TG (inhibitory effect on the increase vs Vehicle group): after 18 weeks of administration (FIG. 3). The experiment is classed as in vivo, C57BL/6J Jms Slc male mice. On the procedure: In the present Examples, using a high-fat and high-fructose-induced NASH model (fast-food diet model: FFD model), the effect of a test drug was evaluated. For the FFD model, refer to BMC Gastroenterol. 2020; 20: 210 and Am J Physiol Gastrointest Liver Physiol. 2013 Oct. 1; 305(7): G483-95. The test drug was prepared by adding hydrochloride of the compound represented by the formula (1) (hereinafter referred to as “compound 1”) to 0.5% MC and sonicating the mixture. 6-week-old C57BL/6J Jms Slc male mice were fed with standard diet (D09100304, Research Diets, Inc.) or FFD diet for pathogenesis (D09100310N, Research Diets, Inc.) for 20 weeks. Then, the mice were grouped as shown in Table 1 based on three indices, i.e., plasma alanine aminotransferase (ALT) levels, body weight, and fasting blood glucose levels. According to the dosage and usage shown in Table 1, the administration substance was gavaged to each group for 18 weeks. [table] ALT was measured by collecting blood from the tail vein after 12 weeks of administration. An autopsy was performed after 18 weeks of administration, and plasma aspartate aminotransferase (AST), plasma total cholesterol (Tcho), and liver triglyceride (TG) were measured. In addition, the Sirius red-positive area and the number of hepatic crown-like structures (hCLS) were measured by liver pathological analysis. Statistical analysis was performed using GraphPad Prism 6 (GraphPad Software, Inc.). For the Normal group and the Vehicle group, t-test or Mann-Whitney's test was performed. For the Vehicle group and the compound 1 group, Dunnett' multiple comparison test or Dunn's multiple comparison test was performed. Any of the test methods was appropriately selected according to the distribution of each parameter. The significance level of all the tests was set to p=0.05. A liver sample was homogenized in a phosphate buffer and extracted with methanol and chloroform overnight. Then, chloroform and distilled water were further added thereto. The mixture was separated by centrifugation, the chloroform layer was collected, and the solvent was dried. The precipitate was dissolved in isopropanol/TritonX-100, and this was used as a measurement sample, the measurement was carried out using Triglyceride E-Test Wako (FUJIFILM Wako Pure Chemical Corporation). The excised liver was fixed in a 10% neutral buffered formalin solution, and embedded in paraffin and Sirius red-stained specimens were prepared according to standard methods. The Sirius red-stained specimen was used to calculate the positive area. The positive area of the Normal group was averaged and used as the background. A CD68 immunostaining specimen (rabbit anti-CD68 polyclonal antibody [ab125212], Abcam) was prepared, and the number of hCLS was counted.

The mark [1] stands for this setting: compound 1 (60) group, 60 mg/kg/day BID.

As for `CC(C)(Cc1ccc(C(=O)Oc2ccc(C(=N)N)cc2F)s1)C(=O)O` [compound 1], the “histopathological findings: Fat formation: large fat droplets, number of mice graded ± (Slight)” value by setting is: (10 mg/kg QD) 4; (30 mg/kg QD) 2; (60 mg/kg/day BID) 7. Also, the “histopathological findings: Fat formation: large fat droplets, number of mice graded + (Moderate)” value (10 mg/kg QD) was determined as 4; the “histopathological findings: Fat formation: large fat droplets, number of mice graded + (Moderate)” value (30 mg/kg QD) came out at 6; the “histopathological findings: Fat formation: large fat droplets, number of mice graded + (Moderate)” value (60 mg/kg/day BID) stood at 1. Besides, the “histopathological findings: Fibrosis, number of mice graded ± (Slight)” value is, setting by setting: (10 mg/kg QD) 6; (30 mg/kg QD) 6; (60 mg/kg/day BID) 6. The “histopathological findings: Fibrosis, number of mice graded + (Moderate)” value runs as follows: (10 mg/kg QD) 2; (30 mg/kg QD) 1; (60 mg/kg/day BID) 2. The “number of CD68-positive hCLS in the liver (inhibitory effect on the increase vs Vehicle group)” value is, setting by setting: (compound 1 (10) group, 10 mg/kg QD) “statistically significant inhibitory effect”; under setting [1], “statistically significant inhibitory effect”. Besides, the “liver TG (inhibitory effect on the increase vs Vehicle group)” value was “statistically significant inhibitory effect” (compound 1 (30) group, 30 mg/kg QD) and “statistically significant inhibitory effect” under setting [1]. The “plasma ALT (inhibitory effect on the increase vs Vehicle group)” value (compound 1 (60) group, 60 mg/kg/day BID, after 12 weeks and 18 weeks of administration (FIG. 1A, 1B)) is given as “statistically significant inhibitory effect”. Under “compound 1 (60) group, 60 mg/kg/day BID, after 18 weeks of administration (FIG. 1C)”, the “plasma AST (inhibitory effect on the increase vs Vehicle group)” value is recorded as “statistically significant inhibitory effect”. Besides, the “plasma Tcho (inhibitory effect on the increase vs Vehicle group)” value (compound 1 (60) group, 60 mg/kg/day BID, after 18 weeks of administration (FIG. 2)) is given as “statistically significant inhibitory effect”. Besides, the “Sirius red-positive area in the liver (inhibitory effect on the increase vs Vehicle group)” value (compound 1 (60) group, 60 mg/kg/day BID, after 18 weeks of administration (FIG. 4)) is reported as “statistically significant inhibitory effect”.
